How the values were obtained:
Assay type in all cases: functional, cell-based
Cannabinoid receptor 2 = Cannabinoid receptor 2 (Homo sapiens, UniProt P34972); test: Agonist activity at human recombinant CB2 receptor expressed in CHO cells assessed as inhibition forskolin-induced cAMP release
Cannabinoid receptor 1 [1] = molecular target: T1, Cannabinoid receptor 1 (Homo sapiens, UniProt P21554); test: Agonist activity at human recombinant CB1 receptor expressed in CHO cells at 10 uM by FLIPR assay
Cannabinoid receptor 1 [2] = molecular target: T1, Cannabinoid receptor 1; test: Agonist activity at human recombinant CB1 receptor expressed in CHO cells by FLIPR assay

Sequence of Cannabinoid receptor 2 (P34972 whole entry): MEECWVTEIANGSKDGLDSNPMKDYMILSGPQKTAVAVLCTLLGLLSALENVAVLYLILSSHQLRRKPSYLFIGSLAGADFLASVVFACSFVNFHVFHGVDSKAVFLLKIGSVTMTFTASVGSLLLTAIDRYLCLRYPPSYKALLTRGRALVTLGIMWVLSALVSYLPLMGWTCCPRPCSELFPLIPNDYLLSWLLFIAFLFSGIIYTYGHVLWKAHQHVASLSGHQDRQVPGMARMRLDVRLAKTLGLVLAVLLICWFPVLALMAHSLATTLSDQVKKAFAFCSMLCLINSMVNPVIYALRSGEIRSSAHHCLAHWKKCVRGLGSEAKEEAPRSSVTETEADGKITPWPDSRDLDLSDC
T1 sequence (P21554 whole entry): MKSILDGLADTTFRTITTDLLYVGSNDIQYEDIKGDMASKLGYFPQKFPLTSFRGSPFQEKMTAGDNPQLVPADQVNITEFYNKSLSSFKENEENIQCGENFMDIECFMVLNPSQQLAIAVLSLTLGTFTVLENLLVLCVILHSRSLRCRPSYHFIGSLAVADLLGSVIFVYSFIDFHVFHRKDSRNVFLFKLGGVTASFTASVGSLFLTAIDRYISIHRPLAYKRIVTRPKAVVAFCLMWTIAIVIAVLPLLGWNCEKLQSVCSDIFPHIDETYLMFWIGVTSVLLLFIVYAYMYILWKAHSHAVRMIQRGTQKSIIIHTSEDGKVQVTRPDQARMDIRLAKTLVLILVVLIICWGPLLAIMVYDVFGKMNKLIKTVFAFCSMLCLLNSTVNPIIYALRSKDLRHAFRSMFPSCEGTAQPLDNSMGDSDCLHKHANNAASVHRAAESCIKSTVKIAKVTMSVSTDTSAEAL

CCCN(C)C(=O)N1CCc2c(nc(C(C)(C)C)n2CC2CC2)C1
EC50 (Cannabinoid receptor 2): 380 nM

CC(C)(C)c1nc2c(n1CC1CC1)CCN(S(=O)(=O)c1cccnc1)C2
EC50 (Cannabinoid receptor 2): 14.2 nM | Activity (Cannabinoid receptor 1 [1]): 11%

CC(C)(C)C(=O)N1CCc2c(nc(C(C)(C)C)n2CC2CC2)C1
EC50 (Cannabinoid receptor 2): 320 nM

CCCCCN1CCc2c(nc(C(C)(C)C)n2CC2CC2)C1
EC50 (Cannabinoid receptor 2): 878 nM

CC(C)(C)Cc1nc2c(n1CC1CC1)CCN(S(C)(=O)=O)C2
EC50 (Cannabinoid receptor 2): 439 nM | Activity (Cannabinoid receptor 1 [1]): 9%

COCCS(=O)(=O)N1CCc2c(nc(C(C)(C)C)n2CC2CC2)C1
EC50 (Cannabinoid receptor 2): 26.7 nM | Activity (Cannabinoid receptor 1 [1]): 25%

Cc1noc(C)c1S(=O)(=O)N1CCc2c(nc(CC(C)(C)C)n2CC2CC2)C1
EC50 (Cannabinoid receptor 2): 7 nM | Activity (Cannabinoid receptor 1 [1]): 24%

CC(C)(C)c1nc2c(n1CC1CC1)CCN(S(C)(=O)=O)C2
EC50 (Cannabinoid receptor 2): 403 nM | Activity (Cannabinoid receptor 1 [1]): 10%

CCCCCN1CCc2c(nc(CC(C)(C)C)n2CC2CC2)C1
EC50 (Cannabinoid receptor 2): 3000 nM

CCCOC(=O)N1CCc2c(nc(CC(C)(C)C)n2CC2CC2)C1
EC50 (Cannabinoid receptor 2): 560 nM

Cc1nocc1S(=O)(=O)N1CCc2c(nc(C(C)(C)C)n2CC2CC2)C1
EC50 (Cannabinoid receptor 2): 55.4 nM | Activity (Cannabinoid receptor 1 [1]): 38% | EC50 (Cannabinoid receptor 1 [2]): 18000 nM

CC(C)(C)c1nc2c(n1CC1CC1)CCN(S(=O)(=O)c1ccccc1)C2
EC50 (Cannabinoid receptor 2): 7.9 nM | Activity (Cannabinoid receptor 1 [1]): 10%

Cc1noc(C)c1S(=O)(=O)N1CCc2c(nc(C(C)(C)C)n2CC2CC2)C1
EC50 (Cannabinoid receptor 2): 5.1 nM | Activity (Cannabinoid receptor 1 [1]): 66% | EC50 (Cannabinoid receptor 1 [2]): 7500 nM

CC(C)(C)Cc1nc2c(n1CC1CC1)CCN(S(=O)(=O)Cc1ccccc1)C2
EC50 (Cannabinoid receptor 2): 13.4 nM | Activity (Cannabinoid receptor 1 [1]): 15%

COc1ncc(Br)cc1CN1CCc2c(nc(C(C)(C)C)n2CC2CC2)C1
EC50 (Cannabinoid receptor 2): 295 nM

CC(C)(C)Cc1nc2c(n1CC1CC1)CCN(S(=O)(=O)c1cccnc1)C2
EC50 (Cannabinoid receptor 2): 24.5 nM | Activity (Cannabinoid receptor 1 [1]): 4%

CN(Cc1ccccc1)C(=O)N1CCc2c(nc(CC(C)(C)C)n2CC2CC2)C1
EC50 (Cannabinoid receptor 2): 523 nM

CN(Cc1ccccc1)C(=O)N1CCc2c(nc(C(C)(C)C)n2CC2CC2)C1
EC50 (Cannabinoid receptor 2): 637 nM

Cc1nocc1S(=O)(=O)N1CCc2c(nc(CC(C)(C)C)n2CC2CC2)C1
EC50 (Cannabinoid receptor 2): 18.5 nM | Activity (Cannabinoid receptor 1 [1]): 9%

CC(C)(C)c1nc2c(n1CC1CC1)CCN(S(=O)(=O)Cc1ccccc1)C2
EC50 (Cannabinoid receptor 2): 21.8 nM | Activity (Cannabinoid receptor 1 [1]): 13%

CCCCCCC(C)(C)c1ccc([C@@H]2C[C@H](O)CC[C@H]2CCCO)c(O)c1
Activity (Cannabinoid receptor 1 [1]): 100%

CCCCC(=O)N1CCc2c(nc(CC(C)(C)C)n2CC2CC2)C1
EC50 (Cannabinoid receptor 2): 1020 nM

CC(C)(C)Cc1nc2c(n1CC1CC1)CCN(S(=O)(=O)c1ccccc1)C2
EC50 (Cannabinoid receptor 2): 9.1 nM | Activity (Cannabinoid receptor 1 [1]): 9%

COCCS(=O)(=O)N1CCc2c(nc(CC(C)(C)C)n2CC2CC2)C1
EC50 (Cannabinoid receptor 2): 21.5 nM | Activity (Cannabinoid receptor 1 [1]): 37% | EC50 (Cannabinoid receptor 1 [2]): 14000 nM

Reference: ChEMBL document CHEMBL1153626, “Rapid assessment of a novel series of selective CB(2) agonists using parallel synthesis protocols: A Lipophilic Efficiency (LipE) analysis” (Bioorg Med Chem Lett, 2009)
